From US11667649B2, “Heteroaromatic macrocyclic ether chemotherapeutic agents” (Nuvalent, Inc., priority 2020, dated 2023) come the findings set out here.

Molecules are shown by their SMILES. pKi: −log10 of the molar value.

The target in one assay is T1, ALK-wt kinase domain (Homo sapiens, UniProt Q9UM73).
T1 construct: TRKA-wt (1 nM, BPS Bio, 40280) kinase domains in buffer; purchased Carna 08-518
Description: Biochemical kinase assay, ALK-wt. The following applies: 2 mM ATP substrate solution, read-out: Ki^app ALK-wt. Summed up:
(§1)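 Apparent Ki values come from fitting initial reaction rates against inhibitor concentration to the Morrison equation. Rates were taken from the linear phase of fluorogenic substrate phosphorylation (AQT0101 for ALK and ROS1, AQT0104 for TRKA; 26 μM in substrate solution with 2 mM ATP), monitored at 485 nm over 120 min at 30° C.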

The target in assay [1] is T2, ALK L1196M/G1202R kinase domain (Homo sapiens, UniProt Q9UM73, G1202R/L1196M).
T2 construct: TRKA-wt (1 nM, BPS Bio, 40280) kinase domains in buffer; purchased SignalChem A19-12NG
Description: Biochemical kinase assay, ALK L1196M/G1202R. To be noted: 2 mM ATP substrate solution, read-out: Ki^app ALK-L1196M-G1202R. The essentials: as §1

In the next assay the target is T3, ROS1-wt kinase domain (Homo sapiens, UniProt P08922).
T3 construct: TRKA-wt (1 nM, BPS Bio, 40280) kinase domains in buffer; purchased Carna 08-163
Description: Biochemical kinase assay, ROS1-wt. To be noted: 2 mM ATP substrate solution, read-out: Ki^app ROS1-wt. Summed up:
as §1

Assay [2] addresses T4, ROS1-G2032R kinase domain (Homo sapiens, UniProt P08922, G2032R).
T4 construct: TRKA-wt (1 nM, BPS Bio, 40280) kinase domains in buffer; purchased SignalChem R14-12BG
The experiment in a line: Biochemical kinase assay, ROS1-G2032R. To be noted: 2 mM ATP substrate solution, read-out: Ki^app ROS1-G2032R. The essentials: as §1

The next assay has as its target T5, TRKA-wt kinase domain (Homo sapiens, UniProt P04629).
T5 construct: TRKA-wt (1 nM, BPS Bio, 40280) kinase domains in buffer; purchased BPS Bio 40280
Description: Biochemical kinase assay, TRKA-wt. To be noted: 2 mM ATP substrate solution, read-out: Ki^app TRKA-wt. The essentials:
as §1

`CCn1nnc2c1-c1cnc(N)c(c1)O[C@H](C)c1cc(F)ccc1-c1sncc1C2` [Compound 93]: the pKi was > 7.30 at ALK-wt kinase domain; > 7.30 in assay [1]; > 7.30 at ROS1-wt kinase domain; > 7.30 in assay [2]; 6.30 to 7.30 at TRKA-wt kinase domain.

Regarding `C[C@H]1Oc2cc(cnc2N)-c2c(C#N)nn(C)c2Cc2scnc2-c2ccc(F)cc21` [Compound 94], the pKi at ALK-wt kinase domain was > 7.30; in assay [1], > 7.30; at ROS1-wt kinase domain, > 7.30; in assay [2], > 7.30; at TRKA-wt kinase domain, 6.30 to 7.30.

`CCn1ncc2c1-c1cnc(N)c(c1)O[C@H](C)c1cc(F)ccc1-n1nc(OC)cc1C2` [Compound 98]: the pKi (at ALK-wt kinase domain; in assay [1]; on ROS1-wt kinase domain; in assay [2]; on TRKA-wt kinase domain) was > 7.30 in each case.

For the compound `CCn1ncc2c1-c1cnc(N)c(c1)O[C@H](C)c1cc(F)ccc1-c1nocc1C2` [Compound 99], the pKi at ALK-wt kinase domain was > 7.30; in assay [1], > 7.30; at ROS1-wt kinase domain, > 7.30; in assay [2], > 7.30; on TRKA-wt kinase domain it was 6.30 to 7.30.

On to `C[C@H]1Oc2cc(cnc2N)-c2c(C#N)nn(C)c2Cc2cccnc2-c2ccc(F)cc21` [Compound 100], for which the pKi on ALK-wt kinase domain was > 7.30; in assay [1], > 7.30; at ROS1-wt kinase domain it was > 7.30; in assay [2], > 7.30; at TRKA-wt kinase domain it was 6.30 to 7.30.

On to `CCn1ncc2c1-c1cnc(N)c(c1)O[C@H](C)c1cc(F)ccc1-n1nc(C(F)F)cc1C2` [Compound 102], for which the pKi (at ALK-wt kinase domain; in assay [1]; on ROS1-wt kinase domain; in assay [2]; at TRKA-wt kinase domain) was > 7.30 throughout.

Regarding `C[C@H]1Oc2cc(cnc2N)-c2c(C#N)nn(C)c2Cc2cc(Cl)nn2-c2ccc(F)cc21` [Compound 103], the pKi on ALK-wt kinase domain was > 7.30; in assay [1], > 7.30; on ROS1-wt kinase domain, > 7.30; in assay [2] it was > 7.30; at TRKA-wt kinase domain, 6.30 to 7.30.

As for `C[C@H]1Oc2cc(cnc2N)-c2c(C#N)nn(C)c2Cc2cc(C(F)(F)F)nn2-c2ccc(F)cc21` [Compound 104], the pKi at ALK-wt kinase domain is > 7.30; in assay [1] it was > 7.30; at ROS1-wt kinase domain it was > 7.30; in assay [2] it was > 7.30; on TRKA-wt kinase domain, < 6.30.

Consider `C[C@H]1Oc2cc(cnc2N)-c2c(C#N)nn(C)c2Cc2cc(F)cnc2-c2ccc(F)cc21` [Compound 105], for which the pKi on ALK-wt kinase domain was > 7.30; in assay [1] it was > 7.30; on ROS1-wt kinase domain, > 7.30; in assay [2], > 7.30; on TRKA-wt kinase domain, < 6.30.

For `C[C@H]1Oc2cc(cnc2N)-c2c(nnn2CC2CC2)Cc2cc(F)cnc2-c2ccc(F)cc21` [Compound 106], the pKi on ALK-wt kinase domain was > 7.30; in assay [1], > 7.30; on ROS1-wt kinase domain, > 7.30; in assay [2] it was > 7.30; at TRKA-wt kinase domain it was 6.30 to 7.30.

As for `CCn1nnc2c1-c1cnc(N)c(c1)O[C@H](C)c1cc(F)ccc1-n1nc(C(F)(F)F)cc1C2` [Compound 107], the pKi on ALK-wt kinase domain is > 7.30; in assay [1] it was > 7.30; at ROS1-wt kinase domain, > 7.30; in assay [2], > 7.30; at TRKA-wt kinase domain it was 6.30 to 7.30.

Regarding `C[C@H]1Oc2cc(cnc2N)-c2c(nnn2CC2CC2)Cc2cc(Cl)nn2-c2ccc(F)cc21` [Compound 108], the pKi at ALK-wt kinase domain was > 7.30; in assay [1], > 7.30; on ROS1-wt kinase domain, > 7.30; in assay [2], > 7.30; at TRKA-wt kinase domain, 6.30 to 7.30.

For the compound `Cc1cc2n(n1)-c1ccc(F)cc1[C@@H](C)Oc1cc(cnc1N)-c1c(cnn1CC1CC1)C2` [Compound 109], the pKi (on ALK-wt kinase domain; in assay [1]; at ROS1-wt kinase domain; in assay [2]; at TRKA-wt kinase domain) was > 7.30 each time.

With `Nc1ncc2cc1OCc1cc(F)ccc1-n1nc(Cl)cc1Cc1nnn(CC3CC3)c1-2` [Compound 110], the pKi on ALK-wt kinase domain was > 7.30; in assay [1], > 7.30; at ROS1-wt kinase domain it was > 7.30; in assay [2], > 7.30; at TRKA-wt kinase domain, < 6.30.

For `C[C@H]1Oc2cc(cnc2N)-c2c(nn(C)c2C#N)Cc2cn(C)nc2-c2ccc(F)cc21` [Compound 111], the pKi on ALK-wt kinase domain is > 7.30; in assay [1] it was > 7.30; at ROS1-wt kinase domain it was > 7.30; in assay [2] it was > 7.30; on TRKA-wt kinase domain it was 6.30 to 7.30.

For `C[C@H]1Oc2cc(cnc2N)-c2c(nn(C)c2C#N)Cc2cccnc2-c2ccc(F)cc21` [Compound 112], the pKi at ALK-wt kinase domain is > 7.30; in assay [1], > 7.30; at ROS1-wt kinase domain, > 7.30; in assay [2] it was > 7.30; at TRKA-wt kinase domain, 6.30 to 7.30.

On to `Cc1nc2c(s1)Cc1nnn(CC3CC3)c1-c1cnc(N)c(c1)O[C@H](C)c1cc(F)ccc1-2` [Compound 114], for which the pKi is > 7.30 at ALK-wt kinase domain; > 7.30 in assay [1]; > 7.30 on ROS1-wt kinase domain; > 7.30 in assay [2]; 6.30 to 7.30 on TRKA-wt kinase domain.

Take `C[C@H]1Oc2cc(cnc2N)-c2c(nnn2CC2CC2)Cc2cccnc2-c2ccc(F)cc21` [Compound 116]: the pKi on ALK-wt kinase domain was > 7.30; in assay [1], > 7.30; on ROS1-wt kinase domain it was > 7.30; in assay [2], > 7.30; at TRKA-wt kinase domain, 6.30 to 7.30.

Take `C[C@H]1Oc2cc(cnc2N)-c2c(C#N)nn(C)c2Cc2ccccc2-c2ccc(F)cc21` [Compound 117]: the pKi is > 7.30 on ALK-wt kinase domain; > 7.30 in assay [1]; > 7.30 on ROS1-wt kinase domain; 6.30 to 7.30 in assay [2]; < 6.30 on TRKA-wt kinase domain.

`CC(C)n1nc2c(c1C#N)-c1cnc(N)c(c1)O[C@H](C)c1cc(F)ccc1-n1nccc1C2` [Compound 118]: the pKi at ALK-wt kinase domain is > 7.30; in assay [1] it was 6.30 to 7.30; at ROS1-wt kinase domain it was > 7.30; in assay [2], < 6.30; on TRKA-wt kinase domain, > 7.30.

In the case of `CCn1nc2c(c1C#N)-c1cnc(N)c(c1)O[C@H](C)c1cc(F)ccc1-n1nccc1C2` [Compound 119], the pKi on ALK-wt kinase domain is > 7.30; in assay [1], > 7.30; on ROS1-wt kinase domain, > 7.30; in assay [2], 6.30 to 7.30; at TRKA-wt kinase domain, > 7.30.

In the case of `CCc1noc2c1-c1cnc(N)c(c1)O[C@H](C)c1cc(F)ccc1-c1nncn1C2` [Compound 120], the pKi at ALK-wt kinase domain was > 7.30; in assay [1], 6.30 to 7.30; at ROS1-wt kinase domain, > 7.30; in assay [2], 6.30 to 7.30; on TRKA-wt kinase domain, 6.30 to 7.30.

In the case of `C[C@H]1Oc2cc(cnc2N)-c2c(cnn2CC2CC2)Cc2cn(C)nc2-c2ccc(F)cc21` [Compound 121], the pKi was > 7.30 on ALK-wt kinase domain; > 7.30 in assay [1]; > 7.30 at ROS1-wt kinase domain; > 7.30 in assay [2]; 6.30 to 7.30 at TRKA-wt kinase domain.

Regarding `C[C@H]1Oc2cc(cnc2N)-c2c(nnn2CC2CC2)Cc2cc(C(F)F)nn2-c2ccc(F)cc21` [Compound 122], the pKi on ALK-wt kinase domain was > 7.30; in assay [1], > 7.30; at ROS1-wt kinase domain, > 7.30; in assay [2], > 7.30; at TRKA-wt kinase domain it was 6.30 to 7.30.

On to `C[C@H]1Oc2cc(cnc2N)-c2c(c(C#N)nn2CC2CC2)Cc2cccnc2-c2ccc(F)cc21` [Compound 123], for which the pKi at ALK-wt kinase domain was > 7.30; in assay [1], > 7.30; at ROS1-wt kinase domain, > 7.30; in assay [2], > 7.30; at TRKA-wt kinase domain, < 6.30.

The pKi is the negative decadic logarithm of the Ki, by convention in mol/L.
